Measured values as given in US4338330A, “Benzimidazole derivatives, their use, and compositions containing these derivatives” (Continental Pharma, priority 1979, dated 1982).
Read-outs that look alike come from different tables or passages of the source.

How the values were obtained:
[1] = LD50 in mice, oral (Lichtfield and Wilcoxon method); assay type: in vivo
Protocol: LD50 were determined according to the Lichtfield and Wilcoxon method (J. Pharmacol. Exp. Ther. 96, 99, 1949) and expressed in mg/kg. The products were administered to mice orally.

[2] = Antihypertensive activity, oral, unanesthetized spontaneously hypertensive rats; assay type: in vivo
Protocol: […] Only rats having a systolic pressure of 180 to 220 mm Hg are used. Two rats are used by product. The treatments are administered without the knowledge of the person making the measure.
The antihypertensive effects were recorded according to a score followed by an index. The scoring system is as follows.
The index is calculated by multiplying the systolic pressure difference (cmHg) measured every 30 minutes after the treatment, by a coefficient of 1 to 6 corresponding to times of 30 to 180 minutes.

[3] = test system: isolated guinea pig auricles; test: Chronotrope effect of the substance on isolated auricles; details: 10^-6 M, 20 minutes, Tyrode, 29° C.
Protocol: The β-lytic effect was searched on the chronotropic response to noradrenaline of isolated guinea pig auricles. Auricles were incubated for 20 minutes in a Tyrode solution at 29° C. in the presence of the substance to be tested at the concentration of 10^-6 M. A positive (+) or negative (-) chronotrope effect of the substance was noted using the following scores: […]

[4] = test system: chronotropic response to noradrenaline of isolated guinea pig auricles; test: β-lytic effect on the chronotropic response to noradrenaline of isolated auricles
Protocol: The β-lytic effect was searched on the chronotropic response to noradrenaline of isolated guinea pig auricles. Auricles were incubated for 20 minutes in a Tyrode solution at 29° C. in the presence of the substance to be tested at the concentration of 10^-6 M. A positive (+) or negative (-) chronotrope effect of the substance was noted using the following scores:
Then, the chronotrope effect of cumulative increasing concentrations of noradrenaline was recorded. The pD2 (-log CE50) value was calculated. A score of β-lytic activity of the substance was given as follows:
If the score at concentration of 10^-6 M was 3 or 4, the effect of the substance was examined at concentration of 10^-7 M and a score was recorded according to the same procedure.

[5] = test system: guinea pig ileum contractions induced by histamine; test: Antispasmodic activity against ileum contractions induced by histamine
Protocol: (§1) The antispasmodic activity of the studied substances was examined against guinea pig ileum contractions induced by histamine and acetylcholine.
(§2) These experiences allow to make it obvious an antihistaminic, anticholinergic or musculotrope activity. The response to the contracting agent (sub-maximum concentration) is obtained every 5 minutes before and after injection of increasing concentrations of tested products (10^-7 M to 10^-4 M). The inhibition percentage under the influence of tested products is calculated and the theoretical concentration giving 50% of inhibition is graphically determined for each experience. These values are expressed in -log CI50 (M).

[6] = test system: guinea pig ileum contractions induced by acetylcholine; test: Antispasmodic activity against ileum contractions induced by acetylcholine
Protocol: as §1, §2

[7] = 60 mg/kg oral, spontaneously hypertensive rats
[8] = 60 mg/kg oral, systolic pressure difference (cmHg) every 30 min multiplied by time coefficient 1 to 6

Structure (SMILES): CC(C)(C)NCC(O)COc1ccc(-c2nc3ccccc3[nH]2)cc1 (stereo not shown) [Compound 4, 2-[4-(3-t-butylamino-2-hydroxypropoxy)phenyl]benzimidazole]
- LD50 ([1]; mouse, in vivo, po, read-out: LD50): 1420 mg/kg
- Antihypertensive activity (score) [2, 7]: ++++ (reduction>50 mm Hg)
- Antihypertensive activity (index) [2, 8]: 192
- Chronotrope effect (score) [3]: 0 (if the frequency modification was comprised between +6 and -6)
- β-lytic effect (score) ([4]; 10^-6 M): 3 (if 6.00≥pD2 ≥5.51)
- β-lytic effect (score) ([4]; 10^-7 M): 1 (if 6.80≥pD2 ≥6.41)
- Antispasmodic activity, Hist. (-log CI50 (M)) [5]: 5.64 -log CI50 (M)
- Antispasmodic activity, Ac. Chol. (-log CI50 (M)) [6]: 5.72 -log CI50 (M)

Structure (SMILES): CC(C)NCC(O)COc1ccc(-c2nc3ccccc3[nH]2)cc1 (stereo not shown) [Compound 8, 2-[4-(3-isopropylamino-2-hydroxypropoxy)phenyl]benzimidazole]
- LD50 [1]: > 2248 mg/kg
- Antihypertensive activity (index) ([2]; at 10 mg, oral): 66
- Antihypertensive activity (score) ([2]; at 10 mg, oral): +++ (reduction of 30 to 50 mm Hg)
- Chronotrope effect (score) [3]: 0 (if the frequency modification was comprised between +6 and -6)
- β-lytic effect (score) ([4]; 10^-6 M): 4 (if pD2 ≤5.50)
- Antispasmodic activity, Hist. (-log CI50 (M)) [5]: 4.65 -log CI50 (M)
- Antispasmodic activity, Ac. Chol. (-log CI50 (M)) [6]: 4.95 -log CI50 (M)

Structure (SMILES): CC(C)NCC(O)COc1ccc(-c2nc3ccccc3[nH]2)cc1 (stereo not shown) [Compound 9, 2-[4-(3-isopropylamino-2-hydroxypropoxy)phenyl]benzimidazole]
- LD50 [1]: 2620 mg/kg
- Antihypertensive activity (index) ([2]; at 10 mg, oral): 68
- Antihypertensive activity (score) ([2]; at 10 mg, oral): +++ (reduction of 30 to 50 mm Hg)
- Chronotrope effect (score) [3]: 0 (if the frequency modification was comprised between +6 and -6)
- β-lytic effect (score) ([4]; 10^-6 M): 4 (if pD2 ≤5.50)
- Antispasmodic activity, Hist. (-log CI50 (M)) [5]: 4.75 -log CI50 (M)
- Antispasmodic activity, Ac. Chol. (-log CI50 (M)) [6]: 4.60 -log CI50 (M)

Structure (SMILES): CC(C)NCC(O)COc1ccc(-c2nc3ccccc3[nH]2)cc1 (stereo not shown) [Compound 10, 2-[4-(3-isopropylamino-2-hydroxypropoxy)phenyl]benzimidazole]
- LD50 [1]: 1960 mg/kg
- Antihypertensive activity (index) ([2]; at 10 mg, oral): 61
- Antihypertensive activity (score) ([2]; at 10 mg, oral): +++ (reduction of 30 to 50 mm Hg)
- Chronotrope effect (score) [3]: 0 (if the frequency modification was comprised between +6 and -6)
- β-lytic effect (score) ([4]; 10^-6 M): 4 (if pD2 ≤5.50)
- Antispasmodic activity, Hist. (-log CI50 (M)) [5]: 4.31 -log CI50 (M)
- Antispasmodic activity, Ac. Chol. (-log CI50 (M)) [6]: 4.95 -log CI50 (M)

Structure (SMILES): CC(C)NCC(O)COc1ccc(-c2nc3c([N+](=O)[O-])cccc3[nH]2)cc1 (stereo not shown) [Compound 17]
- Antihypertensive activity (score) [2, 7]: ++++ (reduction>50 mm Hg)
- Antihypertensive activity (index) [2, 8]: 89
- Chronotrope effect (score) [3]: 0 (if the frequency modification was comprised between +6 and -6)
- β-lytic effect (score) ([4]; 10^-6 M): 3 (if 6.00≥pD2 ≥5.51)
- β-lytic effect (score) ([4]; 10^-7 M): 2 (if 6.40≥pD2 ≥6.01)
- Antispasmodic activity, Hist. (-log CI50 (M)) [5]: 5.15 -log CI50 (M)
- Antispasmodic activity, Ac. Chol. (-log CI50 (M)) [6]: 5.60 -log CI50 (M)

Structure (SMILES): OC(CNC1CCCCC1)COc1ccc(-c2nc3ccccc3[nH]2)cc1 (stereo not shown) [Compound 18]
- Antihypertensive activity (score) [2, 7]: +++ (reduction of 30 to 50 mm Hg)
- Antihypertensive activity (index) [2, 8]: 83
- Chronotrope effect (score) [3]: 0 (if the frequency modification was comprised between +6 and -6)
- β-lytic effect (score) ([4]; 10^-6 M): 1 (if 6.80≥pD2 ≥6.41)
- Antispasmodic activity, Hist. (-log CI50 (M)) [5]: 5.45 -log CI50 (M)
- Antispasmodic activity, Ac. Chol. (-log CI50 (M)) [6]: 5.21 -log CI50 (M)

Structure (SMILES): COc1ccc2[nH]c(-c3ccc(OCC(O)CNC(C)C)cc3)nc2c1 (stereo not shown) [Compound 19]
- Antihypertensive activity (score) [2, 7]: +++ (reduction of 30 to 50 mm Hg)
- Antihypertensive activity (index) [2, 8]: 59
- Chronotrope effect (score) [3]: 1
- β-lytic effect (score) ([4]; 10^-6 M): 4 (if pD2 ≤5.50)
- Antispasmodic activity, Hist. (-log CI50 (M)) [5]: 4.99 -log CI50 (M)
- Antispasmodic activity, Ac. Chol. (-log CI50 (M)) [6]: 4.70 -log CI50 (M)

Structure (SMILES): Cc1cc(-c2nc3ccccc3[nH]2)ccc1OCC(O)CNC(C)C (stereo not shown) [Compound 20]
- Antihypertensive activity (score) [2, 7]: 0 (reduction <10 mm Hg)
- Chronotrope effect (score) [3]: 0 (if the frequency modification was comprised between +6 and -6)
- β-lytic effect (score) ([4]; 10^-6 M): 4 (if pD2 ≤5.50)
- β-lytic effect (score) ([4]; 10^-7 M): 1 (if 6.80≥pD2 ≥6.41)

Structure (SMILES): OC(CNCCOc1ccc(Cl)cc1)COc1ccc(-c2nc3ccccc3[nH]2)cc1 (stereo not shown) [Compound 21]
- Antihypertensive activity (score) [2, 7]: 0 (reduction <10 mm Hg)

Structure (SMILES): Cc1ccc(OCCNCC(O)COc2ccc(-c3nc4ccccc4[nH]3)cc2)cc1 (stereo not shown) [Compound 22]
- Antihypertensive activity (score) [2, 7]: 0 (reduction <10 mm Hg)
- Chronotrope effect (score) [3]: 0 (if the frequency modification was comprised between +6 and -6)
- β-lytic effect (score) ([4]; 10^-6 M): 2 (if 6.40≥pD2 ≥6.01)
- Antispasmodic activity, Hist. (-log CI50 (M)) [5]: 5,65 -log CI50 (M)
- Antispasmodic activity, Ac. Chol. (-log CI50 (M)) [6]: 5,35 -log CI50 (M)

Structure (SMILES): CC(C)NCC(O)COc1ccc(-c2nc3cc([N+](=O)[O-])ccc3[nH]2)cc1 (stereo not shown) [Compound 24, 2-[4-(3-isopropylamino-2-hydroxypropoxy)-phenyl]-5(6)nitrobenzimidazole]
- Chronotrope effect (score) [3]: 0 (if the frequency modification was comprised between +6 and -6)
- β-lytic effect (score) ([4]; 10^-6 M): 3 (if 6.00≥pD2 ≥5.51)
- β-lytic effect (score) ([4]; 10^-7 M): 2 (if 6.40≥pD2 ≥6.01)
- Antispasmodic activity, Hist. (-log CI50 (M)) [5]: 5,50 -log CI50 (M)
- Antispasmodic activity, Ac. Chol. (-log CI50 (M)) [6]: 5,45 -log CI50 (M)

Structure (SMILES): COc1cc(-c2nc3ccccc3[nH]2)ccc1OCC(O)CNC(C)C (stereo not shown) [Compound 25, 2-[4-(3-isopropylamino-2-hydroxypropoxy)-3-methoxyphenyl]benzimidazole]
- Chronotrope effect (score) [3]: 0 (if the frequency modification was comprised between +6 and -6)
- β-lytic effect (score) ([4]; 10^-6 M): 3 (if 6.00≥pD2 ≥5.51)
- β-lytic effect (score) ([4]; 10^-7 M): 1 (if 6.80≥pD2 ≥6.41)

Structure (SMILES): CC(C)C(=O)NCCNCC(O)COc1ccc(-c2nc3ccccc3[nH]2)cc1 (stereo not shown) [Compound 26, 2-{4-[3-(2-isobutyramidoethyl)amino-2-hydroxypropoxy]phenyl}benzimidazole]
- Chronotrope effect (score) [3]: 0 (if the frequency modification was comprised between +6 and -6)
- β-lytic effect (score) ([4]; 10^-6 M): 4 (if pD2 ≤5.50)
- β-lytic effect (score) ([4]; 10^-7 M): 3 (if 6.00≥pD2 ≥5.51)

Structure (SMILES): O=C(Cc1ccccc1)NCCNCC(O)COc1ccc(-c2nc3ccccc3[nH]2)cc1 (stereo not shown) [Compound 27, 2-{4-[3-(2-phenylacetamidoethyl)amino-2-hydroxypropoxy]phenyl}benzimidazole]
- Chronotrope effect (score) [3]: 0 (if the frequency modification was comprised between +6 and -6)
- β-lytic effect (score) ([4]; 10^-6 M): 4 (if pD2 ≤5.50)
- β-lytic effect (score) ([4]; 10^-7 M): 3 (if 6.00≥pD2 ≥5.51)

Structure (SMILES): C[C@](N)(Cc1ccc(O)c(O)c1)C(=O)O [alpha-methyldopa, reference compound]
- Antihypertensive activity (index) ([2]; 100 mg/kg oral): 47
- Antihypertensive activity (score) ([2]; 100 mg/kg oral): +++ (reduction of 30 to 50 mm Hg)

Structure (SMILES): COC(=O)[C@H]1[C@H]2C[C@@H]3c4[nH]c5cc(OC)ccc5c4CCN3C[C@H]2C[C@@H](OC(=O)c2cc(OC)c(OC)c(OC)c2)[C@@H]1OC [reserpine, reference compound]
- Antihypertensive activity (index) ([2]; 3 mg/kg oral): 53
- Antihypertensive activity (score) ([2]; 3 mg/kg oral): +++ (reduction of 30 to 50 mm Hg)
